Measurements published in patent US20140308317A1, “Polymeric Compounds And Methods Of Making And Using The Same” (CELLCEUTIX CORPORATION, priority 2012, published 2014).
In brackets after ≈: the same amount, converted by molar mass.

Key:
[1] = system: E. Coli ATCC 25922; assay: Minimum Inhibitory Concentration (MIC), modified microbroth dilution; assay type: cell-based; settings: E. coli (25922), overnight incubation (18 hours); for MIC50: Escherichia coli, ATCC25922, read-out: MIC50 E. coli
[2] = system: Staphylococcus aureus ATCC 27660; assay: as above; assay type: cell-based; settings: S. aureus (27660), overnight incubation (18 hours); for MIC50: Staphylococcus aureus, ATCC27660, read-out: MIC50 S. aureus
[3] = system: Enterococcus faecalis ATCC 29212; assay: as above; assay type: cell-based; settings: E. faecalis (29212), overnight incubation (18 hours); for MIC50: Enterococcus faecalis, ATCC29212, read-out: MIC50 E. faecalis
[4] = system: Pseudomonas aeruginosa ATCC 10145; assay: as above; assay type: cell-based; settings: P. aeruginosa (10145), overnight incubation (18 hours); for MIC50: Pseudomonas aeruginosa, ATCC10145, read-out: MIC50 P. Aeruginosa
[5] = system: Klebsiella pneumoniae ATCC 13883; assay: as above; assay type: cell-based; settings: K. pneumoniae (13883), overnight incubation (18 hours); for MIC50: Klebsiella pneumoniae, ATCC13883, read-out: MIC50 K. Pnuemnoiae
[6] = Cytotoxicity colorimetric (tetrazolium) assay; assay type: cell-based, human; settings: human, HepG2 cells, one hour with compound in serum-free media
Method: (§1) Cytotoxicity of the compounds was evaluated in a colorimetric assay using a transformed human liver cell line (HepG2, HB-8065) and an embryonic mouse cell line (NIH/3T3 cells, CRL-1658). This assay measures the bioreduction of a novel tetrazolium compound to a soluble formazan product by viable cells. HepG2 cells were seeded in 96 well plates at 2×10^4 cells/well in MEM medium with 10% fetal bovine serum (FBS) 24 hours prior to use. NIH/3T3 cells were seeded in 96 well plates at 2×10^4 cells/well in DMEM medium with 10% bovine calf serum (BCS) 24 hours prior to use. Cell monolayers were rinsed in serum-free media and incubated for one hour with compounds in serum-free media. After incubation, the media is replaced with serum supplemented media and live cells were measured using the Cell Titer 96 Aqueous […] Assay kit (Promega, Madison, Wis.). EC50 values were determined using a four parameter logistic equation: Y=Bottom+(Top-Bottom)/(1+10̂((LogEC50−X)*HillSlope)).
(§2) Actual results from a representative cytotoxicity assay are shown below in Table 2. Data is expressed as EC50 in μg/mL.

[7] = Cytotoxicity colorimetric (tetrazolium) assay; assay type: cell-based, mouse; settings: mouse, NIH/3T3 cells, one hour with compound in serum-free media
Method: as §1, §2

SMILES | MIC50 [1] | MIC50 [2] | MIC50 [3] | MIC50 [4] | MIC50 [5] | MIC50 E. coli [1] | MIC50 S. aureus [2] | MIC50 E. faecalis [3] | MIC50 P. Aeruginosa [4] | MIC50 K. Pnuemnoiae [5] | EC50 at 1 h ([7]; NIH/3T3 cells (CRL-1658)) | further results
Cl.Cl.NCCCc1cccc(-c2cccc(-c3cccc(CCCN)c3)c2)c1 [Compound 110] |  |  |  |  |  | 25 µg/mL | 25 µg/mL | 100 µg/mL | 100 µg/mL | 100 µg/mL |  | 
CCn1c2ccc(-c3cccc(N)c3)cc2c2cc(-c3cccc(N)c3)ccc21 [Compound 176] |  |  |  |  |  | 12.5 µg/mL (≈ 33.1 µM) | 0.39 µg/mL (≈ 1.03 µM) | >50 µg/mL | 12.5 µg/mL (≈ 33.1 µM) | >50 µg/mL |  | 
N=C(N)NCCCOc1cc(OCCCNC(=N)N)c(-c2cc(F)c(F)c(F)c2)cc1-c1cc(F)c(F)c(F)c1 [Compound 120] |  |  |  |  |  |  |  |  |  |  | 99 µg/mL (≈ 174 µM) | 
NCCCn1cc(-c2cccc(-c3cn(CCCN)nn3)c2)nn1 [Compound 108] |  |  |  |  |  | >100 µg/mL | >100 µg/mL | >100 µg/mL | >100 µg/mL | >100 µg/mL |  | 
N=C(N)NCCCOc1cc(-c2ccc3sc4ccc(-c5cc(OCCCNC(=N)N)c(OCCCNC(=N)N)c(OCCCNC(=N)N)c5)cc4c3c2)cc(OCCCNC(=N)N)c1OCCCNC(=N)N [Compound 186] |  |  |  |  |  | 12.5 µg/mL (≈ 12.2 µM) | 0.78 µg/mL (≈ 0.759 µM) | 3.13 µg/mL (≈ 3.05 µM) | 12.5 µg/mL (≈ 12.2 µM) | 6.25 µg/mL (≈ 6.08 µM) |  | 
NCCCCn1cc(-c2cccc(-c3cn(CCCCN)nn3)c2)nn1 [Compound 107] |  |  |  |  |  | >100 µg/mL | >100 µg/mL | >100 µg/mL | >100 µg/mL | >100 µg/mL |  | 
NCCn1cc(-c2cccc(-c3cn(CCN)nn3)c2)nn1 [Compound 109] |  |  |  |  |  | >100 µg/mL | >100 µg/mL | >100 µg/mL | >100 µg/mL | >100 µg/mL |  | 
N=C(N)NCCCOc1cc(OCCCNC(=N)N)c(-c2ccc(F)c(F)c2)cc1-c1ccc(F)c(F)c1 [Compound 119] |  |  |  |  |  |  |  |  |  |  | 113 µg/mL (≈ 213 µM) | 
NCC#Cc1cc(C#CCN)cc(-c2cccc(-c3cc(C#CCN)cc(C#CCN)c3)c2)c1 [Compound 124] | 50 µg/mL (≈ 113 µM) | 50 µg/mL (≈ 113 µM) | 25 µg/mL (≈ 56.5 µM) | 50 µg/mL (≈ 113 µM) | > 50 µg/mL |  |  |  |  |  | 192 µg/mL (≈ 435 µM) | 
N=C(N)NCCC#Cc1cc(-c2cc(OCCCNC(=N)N)cc(-c3cc(C#CCCNC(=N)N)cc(C(F)(F)F)c3)c2)cc(C(F)(F)F)c1 [Compound 121] |  |  |  |  |  |  |  |  |  |  | 37 µg/mL (≈ 52.9 µM) | 
NCCc1cc(CCN)cc(-c2cc(F)cc(-c3cc(F)cc(-c4cc(CCN)cc(CCN)c4)c3)c2)c1 [Compound 150] |  |  |  |  |  |  |  |  |  |  |  | EC50 at 1 h [7]: 427 µg/mL (≈ 830 µM); EC50 at 1 h [6]: 486 µg/mL (≈ 944 µM)
N=C(N)NCCCOc1cc(OCCCNC(=N)N)cc(-c2ccc3sc4ccc(-c5cc(OCCCN)c(OCCCN)c(OCCCN)c5)cc4c3c2)c1 [Compound 185] |  |  |  |  |  | 6.25 µg/mL (≈ 7.95 µM) | 0.78 µg/mL (≈ 0.992 µM) | 1.56 µg/mL (≈ 1.98 µM) | 25 µg/mL (≈ 31.8 µM) | 12.5 µg/mL (≈ 15.9 µM) |  | 
NCCNc1ccc(-c2ccc3sc4ccc(-c5ccc(NCCN)cc5)cc4c3c2)cc1 [Compound 173] |  |  |  |  |  | 6.25 µg/mL (≈ 13.8 µM) | 0.195 µg/mL (≈ 0.431 µM) | 1.56 µg/mL (≈ 3.45 µM) | >50 µg/mL | 3.13 µg/mL (≈ 6.92 µM) |  | 
N=C(N)Nc1ccc(-c2nnc(-c3ccc(NC(=N)N)cc3)o2)cc1 [Compound 127] | > 100 µg/mL | 50 µg/mL (≈ 149 µM) | > 100 µg/mL | > 100 µg/mL | > 100 µg/mL |  |  |  |  |  |  | 
NCCCn1c2ccccc2c2ccccc21 [Compound 105] |  |  |  |  |  | >100 µg/mL | >100 µg/mL | >100 µg/mL | >100 µg/mL | >100 µg/mL |  | 
N=C(N)NCC#Cc1cc(C#CCNC(=N)N)cc(-c2cccc(-c3cc(C#CCNC(=N)N)cc(C#CCNC(=N)N)c3)c2)c1 [Compound 123] | 3.13 µg/mL (≈ 5.13 µM) | 0.78 µg/mL (≈ 1.28 µM) | 0.78 µg/mL (≈ 1.28 µM) | 6.25 µg/mL (≈ 10.2 µM) | 12.5 µg/mL (≈ 20.5 µM) |  |  |  |  |  | 115 µg/mL (≈ 188 µM) | 

More lines, main results first:

MIC50 [1] | MIC50 [2] | MIC50 [3] | MIC50 [4] | MIC50 [5] | SMILES | MIC50 E. coli [1] | MIC50 S. aureus [2] | MIC50 E. faecalis [3] | MIC50 P. Aeruginosa [4] | MIC50 K. Pnuemnoiae [5] | EC50 at 1 h ([7]; NIH/3T3 cells (CRL-1658)) | further results
3.13 µg/mL (≈ 5.16 µM) | 0.39 µg/mL (≈ 0.643 µM) | 12.5 µg/mL (≈ 20.6 µM) | 12.5 µg/mL (≈ 20.6 µM) | 12.5 µg/mL (≈ 20.6 µM) | NCCCn1c2cc(-c3cccc(CN(CCN)CCN)c3)ccc2c2ccc(-c3cccc(CN(CCN)CCN)c3)cc21 [Compound 178] |  |  |  |  |  |  | EC50 at 1 h ([6]; HepG2 cells (HB-8065)): 228 µg/mL (≈ 376 µM)
0.78 µg/mL (≈ 1.11 µM) | 0.78 µg/mL (≈ 1.11 µM) | 1.56 µg/mL (≈ 2.21 µM) | 12.5 µg/mL (≈ 17.7 µM) | 3.13 µg/mL (≈ 4.44 µM) | NCCCN1c2ccc(NC(=O)Nc3ccc4c(c3)Sc3ccc(C(F)(F)F)cc3N4CCCN)cc2Sc2ccc(C(F)(F)F)cc21 [Compound 143] |  |  |  |  |  |  | 
100 µg/mL (≈ 295 µM) | 100 µg/mL (≈ 295 µM) | > 100 µg/mL | > 100 µg/mL | > 100 µg/mL | NCCCN1c2ccc(N)cc2Sc2ccc(C(F)(F)F)cc21 [Compound 104] |  |  |  |  |  |  | 
25 µg/mL (≈ 55.5 µM) | 12.5 µg/mL (≈ 27.7 µM) | 50 µg/mL (≈ 111 µM) | 50 µg/mL (≈ 111 µM) | > 50 µg/mL | NC/C=C/c1cc(/C=C/CN)cc(-c2cccc(-c3cc(/C=C/CN)cc(/C=C/CN)c3)c2)c1 [Compound 117] |  |  |  |  |  |  | 
50 µg/mL (≈ 121 µM) | 6.25 µg/mL (≈ 15.1 µM) | 25 µg/mL (≈ 60.3 µM) | 25 µg/mL (≈ 60.3 µM) |  | NCCCn1cc(-c2ccc3oc4ccc(-c5cnn(CCCN)c5)cc4c3c2)cn1 [Compound 157] |  |  |  |  |  | 713 µg/mL (≈ 1720 µM) | EC50 at 1 h ([6]; HepG2 cells (HB-8065)): 461 µg/mL (≈ 1110 µM)
12.5 µg/mL (≈ 22.1 µM) | 0.39 µg/mL (≈ 0.688 µM) | 1.56 µg/mL (≈ 2.75 µM) | 12.5 µg/mL (≈ 22.1 µM) | 25 µg/mL (≈ 44.1 µM) | NCCc1cc(CCN)cc(-c2ccc(-c3cccc(-c4ccc(-c5cc(CCN)cc(CCN)c5)s4)c3)s2)c1 [Compound 138] |  |  |  |  |  |  | 
12.5 µg/mL (≈ 32.7 µM) | 12.5 µg/mL (≈ 32.7 µM) |  | 100 µg/mL (≈ 262 µM) | 25 µg/mL (≈ 65.4 µM) | NCCCn1c2cc(Br)ccc2c2ccc(Br)cc21 [Compound 106] |  |  |  |  |  | 107 µg/mL (≈ 280 µM) | EC50 at 1 h ([6]; HepG2 cells (HB-8065)): 61.9 µg/mL (≈ 162 µM)
> 100 µg/mL | 25 µg/mL (≈ 86 µM) | > 100 µg/mL | > 100 µg/mL | > 100 µg/mL | NCCCN1c2ccccc2Sc2ccc(Cl)cc21 [Compound 103] |  |  |  |  |  |  | 
0.78 µg/mL (≈ 1.26 µM) | 0.78 µg/mL (≈ 1.26 µM) | 12.5 µg/mL (≈ 20.2 µM) | 12.5 µg/mL (≈ 20.2 µM) | 12.5 µg/mL (≈ 20.2 µM) | N=C(N)NC/C=C/c1cc(/C=C/CNC(=N)N)cc(-c2cccc(-c3cc(/C=C/CNC(=N)N)cc(/C=C/CNC(=N)N)c3)c2)c1 [Compound 118] |  |  |  |  |  |  | 
6.25 µg/mL (≈ 8.5 µM) | 0.39 µg/mL (≈ 0.531 µM) | 0.78 µg/mL (≈ 1.06 µM) | 12.5 µg/mL (≈ 17 µM) | 3.13 µg/mL (≈ 4.26 µM) | N=C(N)NCCc1cc(CCNC(=N)N)cc(-c2ccc(-c3cccc(-c4ccc(-c5cc(CCNC(=N)N)cc(CCNC(=N)N)c5)s4)c3)s2)c1 [Compound 139] |  |  |  |  |  |  | 
25 µg/mL (≈ 77.1 µM) | 25 µg/mL (≈ 77.1 µM) | 12.5 µg/mL (≈ 38.5 µM) | > 100 µg/mL | 50 µg/mL (≈ 154 µM) | NCCCN1c2ccccc2Sc2ccc(C(F)(F)F)cc21 [Compound 101] |  |  |  |  |  | 9 µg/mL (≈ 27.7 µM) | 
1.56 µg/mL (≈ 2.69 µM) | 0.78 µg/mL (≈ 1.34 µM) | 0.39 µg/mL (≈ 0.672 µM) | 12.5 µg/mL (≈ 21.5 µM) | 3.13 µg/mL (≈ 5.39 µM) | NCC(CN)c1cc(Br)cc(C#Cc2cccc(C#Cc3cc(Br)cc(C(CN)CN)c3)c2)c1 [Compound 190] |  |  |  |  |  |  | 
6.25 µg/mL (≈ 11 µM) | 25 µg/mL (≈ 43.8 µM) |  | 12.5 µg/mL (≈ 21.9 µM) | 25 µg/mL (≈ 43.8 µM) | O=C(Nc1ccc(-c2ccc(N3CCNCC3)nc2)cc1F)Nc1ccc(-c2ccc(N3CCNCC3)nc2)cc1F [Compound 141] |  |  |  |  |  | 404 µg/mL (≈ 708 µM) | EC50 at 1 h ([6]; HepG2 cells (HB-8065)): 24.4 µg/mL (≈ 42.8 µM)
